This note sets out measurements from patent US9938281B2 (Merck Sharp & Dohme Corp., priority 2012, dated 2018).

For one assay, the target named is T1, PI3K-delta (Homo sapiens, UniProt O00329).
T1 construct: purchased Upstate; Millipore 14-604
Briefly: HTRF PI3K biochemical assay, delta isoform. The settings on record: form screened (neutral or TFA salt) given, read-out: PI3Kdelta IC50. In general terms: TR-FRET usually uses a lanthanide donor and a delayed reading to cut background.

The target in another assay is T2, PI3K-alpha (Homo sapiens, UniProt P42336).
T2 construct: purchased Upstate; Millipore 14-602
T2 sequence (P42336 whole entry): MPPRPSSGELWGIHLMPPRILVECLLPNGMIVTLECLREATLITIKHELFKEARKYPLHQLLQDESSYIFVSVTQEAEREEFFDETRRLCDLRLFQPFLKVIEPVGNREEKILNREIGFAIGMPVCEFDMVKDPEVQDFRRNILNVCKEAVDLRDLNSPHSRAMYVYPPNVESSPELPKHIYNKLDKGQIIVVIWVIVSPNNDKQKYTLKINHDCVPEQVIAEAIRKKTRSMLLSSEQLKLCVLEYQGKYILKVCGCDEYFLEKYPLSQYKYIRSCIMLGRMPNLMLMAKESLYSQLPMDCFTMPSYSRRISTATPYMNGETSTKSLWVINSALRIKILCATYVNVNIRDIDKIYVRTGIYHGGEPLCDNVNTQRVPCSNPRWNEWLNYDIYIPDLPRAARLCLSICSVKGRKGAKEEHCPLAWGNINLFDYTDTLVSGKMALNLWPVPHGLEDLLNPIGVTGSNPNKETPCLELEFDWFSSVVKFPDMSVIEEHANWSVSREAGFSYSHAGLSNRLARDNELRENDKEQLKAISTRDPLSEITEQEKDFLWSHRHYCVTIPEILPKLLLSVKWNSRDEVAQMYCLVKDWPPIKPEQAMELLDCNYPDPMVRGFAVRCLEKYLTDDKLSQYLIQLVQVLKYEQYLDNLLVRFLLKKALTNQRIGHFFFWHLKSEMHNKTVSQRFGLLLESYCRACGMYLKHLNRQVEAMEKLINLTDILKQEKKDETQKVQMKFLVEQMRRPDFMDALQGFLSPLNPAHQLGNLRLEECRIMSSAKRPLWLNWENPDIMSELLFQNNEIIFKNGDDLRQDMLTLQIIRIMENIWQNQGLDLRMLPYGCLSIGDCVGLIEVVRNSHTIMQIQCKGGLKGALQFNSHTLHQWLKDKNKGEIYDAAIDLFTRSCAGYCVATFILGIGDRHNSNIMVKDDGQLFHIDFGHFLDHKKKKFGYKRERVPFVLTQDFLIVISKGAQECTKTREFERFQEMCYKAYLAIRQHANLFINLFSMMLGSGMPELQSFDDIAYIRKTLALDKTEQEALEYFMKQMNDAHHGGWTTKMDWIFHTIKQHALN
T2 sequence (P27986 whole entry partner): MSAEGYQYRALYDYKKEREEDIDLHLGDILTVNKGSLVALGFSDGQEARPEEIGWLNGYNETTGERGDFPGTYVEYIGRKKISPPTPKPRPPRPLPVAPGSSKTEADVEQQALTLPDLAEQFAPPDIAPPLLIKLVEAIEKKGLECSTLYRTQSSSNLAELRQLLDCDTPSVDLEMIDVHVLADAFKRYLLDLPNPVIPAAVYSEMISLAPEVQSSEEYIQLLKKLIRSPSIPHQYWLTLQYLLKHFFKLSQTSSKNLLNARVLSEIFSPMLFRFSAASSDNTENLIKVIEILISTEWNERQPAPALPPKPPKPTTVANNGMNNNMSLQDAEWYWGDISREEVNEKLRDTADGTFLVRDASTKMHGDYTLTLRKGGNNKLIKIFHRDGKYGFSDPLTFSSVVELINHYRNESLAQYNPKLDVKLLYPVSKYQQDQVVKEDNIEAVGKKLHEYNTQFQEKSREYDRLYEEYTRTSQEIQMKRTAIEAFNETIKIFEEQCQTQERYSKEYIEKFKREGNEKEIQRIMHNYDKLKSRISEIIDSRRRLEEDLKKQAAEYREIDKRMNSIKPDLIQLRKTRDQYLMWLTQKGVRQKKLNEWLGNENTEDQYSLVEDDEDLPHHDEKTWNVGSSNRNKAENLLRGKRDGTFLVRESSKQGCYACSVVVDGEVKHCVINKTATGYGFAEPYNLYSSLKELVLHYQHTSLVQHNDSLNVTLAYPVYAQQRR
Briefly: HTRF PI3K biochemical assay, alpha isoform. The settings on record: ratio PI3K-alpha IC50 value / PI3K-delta IC50 value.

pIC50: −log10 of the molar value. Bounds are passed on as bounds.

T1 sequence (O00329 whole entry): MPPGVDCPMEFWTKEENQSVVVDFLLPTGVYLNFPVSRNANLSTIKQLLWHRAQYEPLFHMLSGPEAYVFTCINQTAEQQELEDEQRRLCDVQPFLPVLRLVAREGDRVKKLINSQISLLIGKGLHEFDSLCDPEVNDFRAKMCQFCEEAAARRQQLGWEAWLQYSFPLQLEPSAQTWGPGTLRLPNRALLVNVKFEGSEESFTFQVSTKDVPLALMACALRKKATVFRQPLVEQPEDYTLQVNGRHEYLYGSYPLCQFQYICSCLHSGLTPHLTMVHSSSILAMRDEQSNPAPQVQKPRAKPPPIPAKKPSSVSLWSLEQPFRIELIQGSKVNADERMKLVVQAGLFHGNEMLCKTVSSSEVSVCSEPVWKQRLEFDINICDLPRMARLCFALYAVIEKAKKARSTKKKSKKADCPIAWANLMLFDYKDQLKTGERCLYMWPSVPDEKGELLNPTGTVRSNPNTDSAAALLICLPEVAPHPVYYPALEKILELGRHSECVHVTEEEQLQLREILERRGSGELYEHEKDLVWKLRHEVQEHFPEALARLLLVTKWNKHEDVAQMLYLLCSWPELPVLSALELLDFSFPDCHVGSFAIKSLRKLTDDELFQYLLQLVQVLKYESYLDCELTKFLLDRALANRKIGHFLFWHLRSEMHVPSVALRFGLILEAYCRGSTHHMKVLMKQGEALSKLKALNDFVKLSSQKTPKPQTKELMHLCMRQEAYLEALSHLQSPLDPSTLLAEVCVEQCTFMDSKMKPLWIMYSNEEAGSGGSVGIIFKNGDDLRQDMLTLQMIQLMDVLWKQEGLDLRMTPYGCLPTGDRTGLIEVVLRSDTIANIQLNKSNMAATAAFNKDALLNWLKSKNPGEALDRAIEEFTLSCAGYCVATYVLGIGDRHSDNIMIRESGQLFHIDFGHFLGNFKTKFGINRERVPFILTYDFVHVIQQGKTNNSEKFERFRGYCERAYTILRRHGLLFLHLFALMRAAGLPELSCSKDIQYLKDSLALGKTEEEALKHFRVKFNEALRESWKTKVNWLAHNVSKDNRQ
T1 sequence (P27986 whole entry partner): as the sequence (P27986 whole entry partner) above
Text for PI3K-alpha: The PI3-Kinase biochemical assays were developed to measure the intrinsic potency and compound dependent inhibition of the alpha, beta, delta, and gamma PI3K isoform enzymes. This assay was developed and further optimized from a kit produced by Upstate (Millipore catalog #33-047) and has been configured for HTS and SAR screening. Briefly, this procedure exploits the exquisite specificity and high affinity binding of enzyme reaction substrate phosphatidyl(3,4,5)triphosphate (PIP3) to the GRP1 pleckstrin homology (PH) domain to generate the signal. In the absence of PIP3, an HTRF (Homogeneous Time-Resolved Fluorescence energy transfer) complex is formed consisting of europium (Eu)-labeled anti-GST, GSTtagged GRP1-PH domain, biotin-PIP3 and streptavidin conjugated APC. The native PIP3 produced by PI3-Kinase activity disrupts in a competitive manner the biotin-PIP3 from the PH domain, resulting in the loss of energy transfer (HTRF complex) and a decrease in the signal. The format of this assay is the same for all 4 isoforms of PI3K; the differences lie in the concentration of enzyme used to achieve robust assay window. The alpha, beta, and delta assays are run at 0.5, 1, and 0.3 nM enzymes and the gamma assay is run at 5 nM enzyme. The ATP concentration is 100 uM in the alpha, beta, and delta assays and 50 uM ATP in the gamma assay. All reactions are run at 5 uM PIP2.
Compounds are serially diluted (3-fold in 100% DMSO) across a 384-well polypropylene source plated from column 3 to column 12 and column 13 to column 22, to yield 10 concentration dose response for each test compound. Columns 1, 2, 23 and 24 contain either only DMSO or pharmacological known control inhibitor.
The PI3-Kinase biochemical assay was optimized using the HTRF kit provided by Upstate (Millipore). The assay kit contains six reagents: 1) 4× Reaction Buffer; 2) native PIP2 (substrate); 3) Stop (EDTA); 4) Detection Mix A (Streptavidin-APC); 5) Detection Mix B (Eu-labeled Anti-GST plus GST-tagged PH-domain); 6) Detection Mix C.
PI3Kinase Reaction Buffer is prepared by dilution the stock 1:4 with de-ionized water. […] Enzyme addition and compound pre-incubation are initiated by the addition of 1.25 ul of PI3K (at twice its final concentration) in the 1× reaction buffer to all wells using a BioRaptor. Plates are incubated at room temperature for 15 minutes. Reactions are initiated by addition of 1.25 ul of 2× substrate solution (PIP2 and ATP in 1× reaction buffer) using BioRaptor. Plates are incubated in humidified chamber at room temperature for one hour. Reactions are quenched by addition of 0.625 uL of stop solution to all wells using the BioRaptor. The quenched reactions are then processed to detect product formation by adding 0.625 uL of Detection Solution to all wells using the BioRaptor (Detection mix C, Detection Mix A, and Detection Mix B combined together in an 18:1:1 ratio prepared 2 hours prior to use).
The loss of the HTRF signal is due to the displacement of biotinylated-PIP3 from the PH domain by the PI3K-dependent conversion of PIP2 to PIP3. This loss of signal is nonlinear with respect to both increasing product and time. This non-linear detection will impact accuracy of IC50 calculations; therefore, there is a need for a correction factor to obtain more accurate IC50 values. This correction is derived from a PIP3 standard curve run in a separate assay plate. All data were calculated using the ratio of acceptor (APC) to donor (Europium) fluorescence in each well of the assay plate. […] An IC50 was then calculated fitting the % inhibition data to the equation: % inhibition=min+(Max−min)/1+([inhibitor]/IC50)^n) where min is the % inhibition with inhibitor, max is the signal in DMSO control, and n is the Hill slope.
The determination of relative selectivity for a given compound is defined as the relative ratio of the (PI3K-alphalC50 value/PI3K-delta IC50 value).

Consider `CCn1c(-c2cnc(C)nc2)nc2c(N[C@H]3CCN(C(=O)OCC(F)(F)F)C3)ncnc21` [Compound 13-1, 2,2,2-trifluoroethyl (3S)-3-{[9-ethyl-8-(2-methylpyrimidin-5-yl)-9H-purin-6-yl]amino}pyrrolidine-1-carboxylate], for which the pIC50 at PI3K-delta was 7.68. In addition, on PI3K-alpha, the “Selectivity versus PI3Kalpha” value is reported as more than 10.
On to `CCn1c(-n2cnc3ccccc32)nc2c(N[C@H]3CCN(C(=O)C4CC4)C3)ncnc21` [Compound 8-2, 8-(1H-benzimidazol-1-yl)-N-[(3S)-1-(cyclopropylcarbonyl)pyrrolidin-3-yl]-9-ethyl-9H-purin-6-amine], for which the pIC50 on PI3K-delta was more than 9.00. Moreover, on PI3K-alpha, the “Selectivity versus PI3Kalpha” value was more than 10.
The corresponding values for `CCn1ncc(-c2nc3c(N[C@H]4CCN(C(=O)c5nc(C)oc5C)C4)ncnc3n2C)c1C` [Compound 2-5, N-{(3S)-1-[(2,5-dimethyl-1,3-oxazol-4-yl)carbonyl]pyrrolidin-3-yl}-8-(1-ethyl-5-methyl-1H-pyrazol-4-yl)-9-methyl-9H-purin-6-amine] are 8.82 and more than 10.
Turning to `CCC(=O)N1CC[C@H](Nc2ncnc3c2nc(-c2cnc(OC)c(C#N)c2)n3C)C1` [Compound 3-33, 2-methoxy-5-(9-methyl-6-{[(3S)-1-propanoylpyrrolidin-3-yl]amino}-9H-purin-8-yl)pyridine-3-carbonitrile], on PI3K-delta, the pIC50 was 8.64. The “Selectivity versus PI3Kalpha” value at PI3K-alpha was more than 10.
Take `CCNC(=O)c1nc2c(N[C@H]3CCN(C(=O)C4CC4)C3)ncnc2n1CC` [Compound 6-19, 6-{[(3S)-1-(cyclopropylcarbonyl)pyrrolidin-3-yl]amino}-N,9-diethyl-9H-purine-8-carboxamide]: on PI3K-delta, the pIC50 was 7.51. Moreover, the “Selectivity versus PI3Kalpha” value at PI3K-alpha is recorded as more than 10.
Taken in the same sequence, the figures for `CCn1c(-c2cnc(C)nc2)nc2c(N[C@H]3CCN(C(=O)[C@H]4C[C@@H]4C)C3)ncnc21` [Compound 2-93, 9-ethyl-N-[(3S)-1-{[(1S,2S)-2-methylcyclopropyl]carbonyl}pyrrolidin-3-yl]-8-(2-methylpyrimidin-5-yl)-9H-purin-6-amine] were 7.95 and more than 10.
As to `CCn1c(C#Cc2ccccc2)nc2c(N[C@H]3CCN(C(=O)C4CC4)C3)ncnc21` [Compound 16-1, N-[(3S)-1-(cyclopropylcarbonyl)pyrrolidin-3-yl]-9-ethyl-8-(phenylethynyl)-9H-purin-6-amine], the pIC50 on PI3K-delta was 8.72. Also, the “Selectivity versus PI3Kalpha” value at PI3K-alpha is on record as more than 10.
Taken in the same sequence, the figures for `CCn1c(-c2cnc(C)nc2)nc2c(N[C@H]3CCN(C(=O)C4CC4CF)C3)ncnc21` (mixture of isomers) [Compound 2-37, ((S)-3-((9-ethyl-8-(2-methylpyrimidin-5-yl)-9H-purin-6-yl)amino)pyrrolidin-1-yl)((1S,2S and 1R,2R)-2-(fluoromethyl)cyclopropyl) methanone] were more than 9.00 and more than 10.
Taken in the same sequence, the figures for `CCn1c(-c2cnc(C)nc2)nc2c(NC3CN(C(=O)C4CC45CCCCC5)CC3C)ncnc21` (single isomer, unassigned) [Compound 2-88, 9-ethyl-8-(2-methylpyrimidin-5-yl)-N-[(3S,4R or 3R,4S)-4-methyl-1-((S and R)-spiro[2.5]oct-1-ylcarbonyl)pyrrolidin-3-yl]-9H-purin-6-amine] were more than 9.00 and more than 10.
Taken in the same sequence, the figures for `CCn1c(-c2cnc(C)nc2)nc2c(NC3CN(C(C)C)CC34CC4)ncnc21` (stereo not drawn) [Compound 10-3, (R AND S)-9-ethyl-N-[5-(1-methylethyl)-5-azaspiro[2.4]hept-7-yl]-8-(2-methylpyrimidin-5-yl)-9H-purin-6-amine] were 7.02 and more than 10.
Take `CCn1c(C(=O)Nc2cccnc2)nc2c(N[C@H]3CCN(C(=O)C4CC4)C3)ncnc21` [Compound 6-21, 6-{[(3S)-1-(cyclopropylcarbonyl)pyrrolidin-3-yl]amino}-9-ethyl-N-pyridin-3-yl-9H-purine-8-carboxamide]: the pIC50 at PI3K-delta was 7.77. In addition, on PI3K-alpha, the “Selectivity versus PI3Kalpha” value was more than 10.
Turning to `CCn1c(-c2cnc(C)nc2)nc2c(NC3(C)CCN(C(=O)C4CC4)C3)ncnc21` (racemic) [Compound 3-18, N-[(R and S)-1-(cyclopropylcarbonyl)-3-methylpyrrolidin-3-yl]-9-ethyl-8-(2-methylpyrimidin-5-yl)-9H-purin-6-amine], the pIC50 on PI3K-delta was 8.59. For the same molecule, the “Selectivity versus PI3Kalpha” value on PI3K-alpha is more than 10.
`CCn1c(-c2cnc(C)nc2)nc2c(N[C@H]3CCN(C(=O)OCCCN(C)C)C3)ncnc21` [Compound 13-11, 3-(dimethylamino)propyl (3S)-3-{[9-ethyl-8-(2-methylpyrimidin-5-yl)-9H-purin-6-yl]amino}pyrrolidine-1-carboxylate]: on PI3K-delta, the pIC50 was 8.37. Moreover, the “Selectivity versus PI3Kalpha” value on PI3K-alpha was more than 10.
The corresponding values for `CCn1c(-c2ccc(C(F)(F)F)nc2)nc2c(N[C@H]3CCN(C(=O)C4CC4)C3)ncnc21` [Compound 2-49, N-[(3S)-1-(cyclopropylcarbonyl)pyrrolidin-3-yl]-9-ethyl-8-[6-(trifluoromethyl)pyridin-3-yl]-9H-purin-6-amine] are 9.00 and more than 10.
Taken in the same sequence, the figures for `CCC1CN(C(=O)C2CC2)CC1Nc1ncnc2c1nc(-c1cnc(C)nc1)n2CC` (single isomer, unassigned) [Compound 3-20, N-[(3R,4S or 3S,4R)-1-(cyclopropylcarbonyl)-4-ethylpyrrolidin-3-yl]-9-ethyl-8-(2-methylpyrimidin-5-yl)-9H-purin-6-amine] were 8.46 and more than 10.
In the case of `C=C(C)CN1CC(Nc2ncnc3c2nc(-c2cnn(CC)c2C)n3C)CC1=O` (racemic) [Compound 14-2, 4(S and R)-{[8-(1-ethyl-5-methyl-1H-pyrazol-4-yl)-9-methyl-9H-purin-6-yl]amino}-1-(2-methylprop-2-en-1-yl)pyrrolidin-2-one], at PI3K-delta, the pIC50 was 8.00. On PI3K-alpha, the “Selectivity versus PI3Kalpha” value is recorded as more than 10.
Consider `CCn1c(-c2cnc(C)nc2)nc2c(N[C@H]3CCN(C(=O)C4(O)CCCC4)C3)ncnc21` [Compound 2-58, 1-{[(3S)-3-{[9-ethyl-8-(2-methylpyrimidin-5-yl)-9H-purin-6-yl]amino}pyrrolidin-1-yl]carbonyl}cyclopentanol], for which the pIC50 at PI3K-delta was 7.66. Further, the “Selectivity versus PI3Kalpha” value at PI3K-alpha is on record as more than 10.
As to `CCC(=O)N1CC[C@H](N(C)c2ncnc3c2nc(-c2cnc(OC)c(C)c2)n3CC)C1` [Compound 2-8, (S)-1-(3-((9-ethyl-8-(6-methoxy-5-methylpyridin-3-yl)-9H-purin-6-yl)(methyl)amino)pyrrolidin-1-yl)propan-1-one], the pIC50 at PI3K-delta is 8.66. For the same molecule, the “Selectivity versus PI3Kalpha” value at PI3K-alpha is on record as more than 10.
Taken in the same sequence, the figures for `CCC(=O)N1CC[C@H](Nc2ncnc3c2nc(-c2cnn(CC)c2C)n3CC(F)F)C1` [Compound 9-4, 9-(2,2-difluoroethyl)-8-(1-ethyl-5-methyl-1H-pyrazol-4-yl)-N-[(3S)-1-propanoylpyrrolidin-3-yl]-9H-purin-6-amine] were more than 9.00 and more than 10.
The corresponding values for `CCn1c(-c2cnc(C)nc2)nc2c(NC3CN(C(=O)OC(C)(C)C)CC3O)ncnc21` (racemic) [Compound 1-15, ((3R,4R) and (3S,4S))-tert-butyl 3-{[9-ethyl-8-(2-methylpyrimidin-5-yl)-9H-purin-6-yl]amino}-4-hydroxypyrrolidine-1-carboxylate] are 8.00 and more than 10.
Taken in the same sequence, the figures for `CCn1c(N(C)CC(C)C)nc2c(N[C@H]3CCN(C(=O)C4CC4)C3)ncnc21` [Compound 8-4, cyclopropyl[(3S)-3-({9-ethyl-8-[methyl(2-methylpropyl)amino]-9H-purin-6-yl}amino)pyrrolidin-1-yl]methanone] were 7.00 and more than 10.
Consider `CCn1c(C#Cc2cncnc2)nc2c(N[C@H]3CCN(C(=O)C4CC4)C3)ncnc21` [Compound 16-2, N-[(3S)-1-(cyclopropylcarbonyl)pyrrolidin-3-yl]-9-ethyl-8-(pyrimidin-5-ylethynyl)-9H-purin-6-amine], for which, at PI3K-delta, the pIC50 is 7.70. For the same molecule, the “Selectivity versus PI3Kalpha” value on PI3K-alpha is listed as more than 10.
Take `CCCn1c(-c2cnc(C)nc2)nc2c(N[C@H]3CCN(C(=O)CC)C3)ncnc21` [Compound 9-2, 8-(2-methylpyrimidin-5-yl)-N-[(3S)-1-propanoylpyrrolidin-3-yl]-9-propyl-9H-purin-6-amine]: the pIC50 at PI3K-delta is 7.44. In addition, the “Selectivity versus PI3Kalpha” value on PI3K-alpha was more than 10.
With `CCn1ncc(-c2nc3c(N[C@H]4CCCN(C(=O)OC(C)(C)C)C4)ncnc3n2C)c1C` [Compound 1-12, (S)-tert-butyl 3-((8-(1-ethyl-5-methyl-1H-pyrazol-4-yl)-9-methyl-9H-purin-6-yl)amino)piperidine-1-carboxylate], the pIC50 on PI3K-delta was 7.72. The “Selectivity versus PI3Kalpha” value at PI3K-alpha is on record as more than 10.
Consider `CCCCNC(=O)N1CC[C@H](Nc2ncnc3c2nc(-c2cnc(C)nc2)n3CC)C1` [Compound 12-23, (3S)-N-butyl-3-{[9-ethyl-8-(2-methylpyrimidin-5-yl)-9H-purin-6-yl]amino}pyrrolidine-1-carboxamide], for which the pIC50 at PI3K-delta is 8.46. Besides, the “Selectivity versus PI3Kalpha” value on PI3K-alpha is listed as more than 10.
Regarding `CCC(=O)N1CC[C@H](Nc2ncnc3c2nc(C)n3CC)C1` [Compound 7-4, 9-ethyl-8-methyl-N-[(3S)-1-propanoylpyrrolidin-3-yl]-9H-purin-6-amine], at PI3K-delta, the pIC50 was 6.30. In addition, the “Selectivity versus PI3Kalpha” value at PI3K-alpha is more than 10.
Take `CCC(=O)N1CC[C@H](Nc2ncnc3c2nc(-c2cnc(C)nc2)n3CC)C1` [Compound 2-17, (S)-1-(3-((9-ethyl-8-(2-methylpyrimidin-5-yl)-9H-purin-6-yl)amino)pyrrolidin-1-yl)propan-1-one]: the pIC50 at PI3K-delta is 8.57. Moreover, the “Selectivity versus PI3Kalpha” value on PI3K-alpha is given as more than 10.
